Source: US11891634B2, “PDE5A destabilizing domains” (The Board of Trustees of the Leland Stanford Junior …, priority 2017, dated 2024)

Tests used:
Assay type in all cases: cell-based, human
[1] = tested on: HCT 116 cells transduced with the PDE5A DD derived GFP constructs; assay: Response to Vardenafil, GFP expression by FACS in HCT116; conditions: for MFI / Stabilization ratio with Vardenafil: 48 hours, HCT116; for Basal: Table 15, MFI with DMSO / parental HCT116, Vardenafil experiment
Method: (§1) Mutations were created in PDE5A (535-860) catalytic domain using site directed mutagenesis and the mutants were cloned as AcGFP fusion into pELNS vector carrying mCherry marker and packaged in lentiviral vectors. HCT116 cells were transduced with the constructs and stable integrants were selected by cell sorting using mCherry marker. Cells were treated with vehicle (dimethyl sulfoxide, DMSO) or 10 μM Vardenafil (VDF) for 48 hours. Following the treatment, cells were analyzed for GFP expression using FACS. Basal expression was calculated as the ratio of GFP signal in the absence of ligand for a given cell line to auto fluorescence of parental HCT-116 cells. Stabilization ratio was calculated as the ratio of the GFP signal observed in the presence of stabilizing ligand to the signal from the same cell line in the absence of ligand.
HCT 116 cells transduced with the PDE5A DD derived GFP constructs were also tested with increasing doses of Vardenafil. The HCT116 cells were incubated for 48 hours with Vardenafil starting at a dose of 0.002 μM to 30 μM. The GFP intensity of the Vardenafil treated samples was compared to the parental untransduced HCT116 and DMSO treated cells for each construct. The mean fluorescence intensity was calculated for each sample and used to calculate the stabilization ratios as well as the basal expression for each construct. The GFP expression was measured using flow cytometry and the mean fluorescence intensity (MFI) was calculated for each sample. The stabilization ratios are shown in Table 13 and Table 14 and the basal expression is show in Table 15.

[2] = tested on: HCT116 cells transduced with the constructs; assay: Response to Sildenafil, GFP expression by flow cytometry in HCT116; conditions: for MFI / Stabilization ratio with Sildenafil: 48 hours, HCT116
Method: Similar experiments were performed in HCT116 cells using sildenafil. The above-mentioned DDs were cloned as AcGFP fusion into pELNS vector carrying mCherry marker and packaged in lentiviral vectors. HCT116 cells were transduced with the constructs and stable integrants were selected by cell sorting using mCherry marker. Cells were treated with sildenafil at the following μM concentrations: 0.01, 0.02, 0.05, 0.14, 0.41, 1.23, 3.7, 11.11, 33.33, and 100 for a duration of 48 hours. The fluorescence was analyzed by flow cytometry and the mean fluorescence intensity was calculated for all samples. […] The stabilization ratios are shown in Table 24 and Table 25 and the basal expression is show in Table 26.

[3] = tested on: HCT 116 cells transduced with the PDE5A DD derived GFP constructs; assay: Response to Tadalafil, GFP expression by FACS in HCT116; conditions: for MFI / Stabilization ratio with Tadalafil: 48 hours, HCT116
Method: as §1, with “PDE5AN (#3) was” for “Mutations were created in PDE5A (535-860) catalytic domain using site directed mutagenesis and the mutants were”, “construct” for “constructs”, “varying doses of Tadalafil (TDF)” for “10 μM Vardenafil (VDF)”, “hrs with doses ranging from 0.01 μM to 100 μM.” for “hours.”
HCT 116 cells transduced with the PDE5A DD derived GFP constructs were also tested with increasing doses of Tadalafil. The HCT116 cells were incubated for 48 hours with Tadalafil starting at dose 0.01 μM to 100 μM. The GFP intensity of the Tadalafil treated samples was compared to the parental untransduced HCT116 and DMSO treated cells for each construct. The mean fluorescence intensity was calculated for each sample and used to calculate the stabilization ratios as well as the basal expression for each construct. The stabilization ratios are shown in Table 19 and Table 20 and the basal expression is show in Table 21.

## PDE5AN (#53): N-terminal DD 535-860 of PDE5A (E536G, Q589R, C839S), SEQ ID NO. 67, fused to AcGFP
[1]; DMSO (no Vardenafil)
  MFI: 14196
[1]; Table 10, GFP signal without ligand / auto fluorescence of parental HCT-116
  Basal (DMSO/Parental): 14.0
[1]
  Basal: 7.27
[1]; Vardenafil 0.002 μM vs DMSO
  Stabilization ratio with Vardenafil: 1.0
[1]; Vardenafil 0.002 μM
  MFI: 14117
[1]; Vardenafil 0.005 μM vs DMSO
  Stabilization ratio with Vardenafil: 1.0
[1]; Vardenafil 0.005 μM
  MFI: 14485
[1]; Vardenafil 0.014 μM vs DMSO
  Stabilization ratio with Vardenafil: 1.1
[1]; Vardenafil 0.014 μM
  MFI: 15735
[1]; Vardenafil 0.041 μM vs DMSO
  Stabilization ratio with Vardenafil: 1.2
[1]; Vardenafil 0.041 μM
  MFI: 17260
[1]; Vardenafil 0.123 μM vs DMSO
  Stabilization ratio with Vardenafil: 1.8
[1]; Vardenafil 0.123 μM
  MFI: 25577
[1]; Vardenafil 0.370 μM vs DMSO
  Stabilization ratio with Vardenafil: 3.1
[1]; Vardenafil 0.370 μM
  MFI: 43744
[1]; Vardenafil 1.111 μM vs DMSO
  Stabilization ratio with Vardenafil: 5.7
[1]; Vardenafil 1.111 μM
  MFI: 81455
[1]; Vardenafil 3.333 μM vs DMSO
  Stabilization ratio with Vardenafil: 9.2
[1]; Vardenafil 3.333 μM
  MFI: 131016
[1]; Vardenafil 10 μM vs DMSO
  Stabilization ratio with Vardenafil: 12.2
[1]; Vardenafil 10 μM
  MFI: 173576
[1]; Vardenafil 30 μM vs DMSO
  Stabilization ratio with Vardenafil: 13.3
[1]; Vardenafil 30 μM
  MFI: 188519
[2]; DMSO (no Sildenafil)
  MFI: 13747
[2]; Sildenafil 0.01 μM vs DMSO
  Stabilization ratio with Sildenafil: 0.9
[2]; Sildenafil 0.01 μM
  MFI: 12801
[2]; Sildenafil 0.02 μM vs DMSO
  Stabilization ratio with Sildenafil: 1.0
[2]; Sildenafil 0.02 μM
  MFI: 14045
[2]; Sildenafil 0.05 μM vs DMSO
  Stabilization ratio with Sildenafil: 1.0
[2]; Sildenafil 0.05 μM
  MFI: 13801
[2]; Sildenafil 0.14 μM vs DMSO
  Stabilization ratio with Sildenafil: 1.0
[2]; Sildenafil 0.14 μM
  MFI: 14048
[2]; Sildenafil 0.41 μM vs DMSO
  Stabilization ratio with Sildenafil: 1.2
[2]; Sildenafil 0.41 μM
  MFI: 16175
[2]; Sildenafil 1.23 μM vs DMSO
  Stabilization ratio with Sildenafil: 1.5
[2]; Sildenafil 1.23 μM
  MFI: 20410
[2]; Sildenafil 3.70 μM vs DMSO
  Stabilization ratio with Sildenafil: 2.2
[2]; Sildenafil 3.70 μM
  MFI: 30372
[2]; Sildenafil 11.11 μM vs DMSO
  Stabilization ratio with Sildenafil: 4.3
[2]; Sildenafil 11.11 μM
  MFI: 59723
[2]; Sildenafil 33.33 μM vs DMSO
  Stabilization ratio with Sildenafil: 7.2
[2]; Sildenafil 33.33 μM
  MFI: 99558
[2]; Sildenafil 100.00 μM vs DMSO
  Stabilization ratio with Sildenafil: 8.6
[2]; Sildenafil 100.00 μM
  MFI: 117792
[2]; Table 26, MFI with DMSO / parental HCT116, Sildenafil experiment
  Basal expression: 10.7
[3]; DMSO (no Tadalafil)
  MFI: 12071
[3]; Table 21, MFI with DMSO / parental HCT116, Tadalafil experiment
  Basal expression: 9.43
[3]; Tadalafil 0.01 μM vs DMSO
  Stabilization ratio with Tadalafil: 1.0
[3]; Tadalafil 0.01 μM
  MFI: 11635
[3]; Tadalafil 0.02 μM vs DMSO
  Stabilization ratio with Tadalafil: 1.0
[3]; Tadalafil 0.02 μM
  MFI: 11690
[3]; Tadalafil 0.05 μM vs DMSO
  Stabilization ratio with Tadalafil: 1.0
[3]; Tadalafil 0.05 μM
  MFI: 12100
[3]; Tadalafil 0.14 μM vs DMSO
  Stabilization ratio with Tadalafil: 1.0
[3]; Tadalafil 0.14 μM
  MFI: 12331
[3]; Tadalafil 0.41 μM vs DMSO
  Stabilization ratio with Tadalafil: 1.1
[3]; Tadalafil 0.41 μM
  MFI: 13422
[3]; Tadalafil 1.23 μM vs DMSO
  Stabilization ratio with Tadalafil: 1.3
[3]; Tadalafil 1.23 μM
  MFI: 16255
[3]; Tadalafil 3.7 μM vs DMSO
  Stabilization ratio with Tadalafil: 2.0
[3]; Tadalafil 3.7 μM
  MFI: 24201
[3]; Tadalafil 11.11 μM vs DMSO
  Stabilization ratio with Tadalafil: 3.5
[3]; Tadalafil 11.11 μM
  MFI: 42644
[3]; Tadalafil 33.33 μM vs DMSO
  Stabilization ratio with Tadalafil: 6.6
[3]; Tadalafil 33.33 μM
  MFI: 80088
[3]; Tadalafil 100 μM vs DMSO
  Stabilization ratio with Tadalafil: 8.6
[3]; Tadalafil 100 μM
  MFI: 104032

## PDE5AC (#69): AcGFP fused to C-terminal DD 535-860 of PDE5A (Q589R, N636S, D687A, D764N, S815C), SEQ ID NO. 30
[1]; DMSO (no Vardenafil)
  MFI: 9466
[1]
  Basal: 4.84
[1]; Vardenafil 0.002 μM vs DMSO
  Stabilization ratio with Vardenafil: 1.1
[1]; Vardenafil 0.002 μM
  MFI: 10817
[1]; Vardenafil 0.005 μM
  MFI: 13682
[1]; Vardenafil 0.014 μM vs DMSO
  Stabilization ratio with Vardenafil: 2.9
[1]; Vardenafil 0.014 μM
  MFI: 27457
[1]; Vardenafil 0.041 μM vs DMSO
  Stabilization ratio with Vardenafil: 3.4
[1]; Vardenafil 0.041 μM
  MFI: 32264
[1]; Vardenafil 0.123 μM vs DMSO
  Stabilization ratio with Vardenafil: 5.3
[1]; Vardenafil 0.123 μM
  MFI: 49884
[1]; Vardenafil 0.370 μM vs DMSO
  Stabilization ratio with Vardenafil: 7.9
[1]; Vardenafil 0.370 μM
  MFI: 74730
[1]; Vardenafil 1.111 μM vs DMSO
  Stabilization ratio with Vardenafil: 6.6
[1]; Vardenafil 1.111 μM
  MFI: 62065
[1]; Vardenafil 3.333 μM vs DMSO
  Stabilization ratio with Vardenafil: 7.0
[1]; Vardenafil 3.333 μM
  MFI: 66625
[1]; Vardenafil 10 μM vs DMSO
  Stabilization ratio with Vardenafil: 6.8
[1]; Vardenafil 10 μM
  MFI: 64380
[1]; Vardenafil 30 μM vs DMSO
  Stabilization ratio with Vardenafil: 2.4
[1]; Vardenafil 30 μM
  MFI: 22775
[2]; DMSO (no Sildenafil)
  MFI: 9575
[2]; Sildenafil 0.01 μM vs DMSO
  Stabilization ratio with Sildenafil: 1.0
[2]; Sildenafil 0.01 μM
  MFI: 9574
[2]; Sildenafil 0.02 μM vs DMSO
  Stabilization ratio with Sildenafil: 1.2
[2]; Sildenafil 0.02 μM
  MFI: 11755
[2]; Sildenafil 0.05 μM vs DMSO
  Stabilization ratio with Sildenafil: 1.2
[2]; Sildenafil 0.05 μM
  MFI: 11944
[2]; Sildenafil 0.14 μM
  MFI: 19733
[2]; Sildenafil 0.41 μM vs DMSO
  Stabilization ratio with Sildenafil: 3.1
[2]; Sildenafil 0.41 μM
  MFI: 30090
[2]; Sildenafil 1.23 μM vs DMSO
  Stabilization ratio with Sildenafil: 4.6
[2]; Sildenafil 1.23 μM
  MFI: 44180
[2]; Sildenafil 3.70 μM vs DMSO
  Stabilization ratio with Sildenafil: 5.5
[2]; Sildenafil 3.70 μM
  MFI: 52782
[2]; Sildenafil 11.11 μM vs DMSO
  Stabilization ratio with Sildenafil: 6.2
[2]; Sildenafil 11.11 μM
  MFI: 59723
[2]; Sildenafil 33.33 μM vs DMSO
  Stabilization ratio with Sildenafil: 6.8
[2]; Sildenafil 33.33 μM
  MFI: 65183
[2]; Sildenafil 100.00 μM vs DMSO
  Stabilization ratio with Sildenafil: 5.4
[2]; Sildenafil 100.00 μM
  MFI: 51774
[3]; DMSO (no Tadalafil)
  MFI: 8822
[3]; Tadalafil 0.01 μM vs DMSO
  Stabilization ratio with Tadalafil: 1.1
[3]; Tadalafil 0.01 μM
  MFI: 9337
[3]; Tadalafil 0.02 μM vs DMSO
  Stabilization ratio with Tadalafil: 1.2
[3]; Tadalafil 0.02 μM
  MFI: 10353
[3]; Tadalafil 0.05 μM vs DMSO
  Stabilization ratio with Tadalafil: 1.4
[3]; Tadalafil 0.05 μM
  MFI: 12365
[3]; Tadalafil 0.14 μM
  MFI: 19039
[3]; Tadalafil 0.41 μM vs DMSO
  Stabilization ratio with Tadalafil: 3.7
[3]; Tadalafil 0.41 μM
  MFI: 32821
[3]; Tadalafil 1.23 μM vs DMSO
  Stabilization ratio with Tadalafil: 5.9
[3]; Tadalafil 1.23 μM
  MFI: 52033
[3]; Tadalafil 3.7 μM vs DMSO
  Stabilization ratio with Tadalafil: 7.1
[3]; Tadalafil 3.7 μM
  MFI: 62558
[3]; Tadalafil 11.11 μM vs DMSO
  Stabilization ratio with Tadalafil: 7.9
[3]; Tadalafil 11.11 μM
  MFI: 69440
[3]; Tadalafil 33.33 μM vs DMSO
  Stabilization ratio with Tadalafil: 7.7
[3]; Tadalafil 33.33 μM
  MFI: 68289
[3]; Tadalafil 100 μM
  MFI: 67259
